From patent US11322228B2, “Structure based design of d-protein ligands” (Janssen Vaccines & Prevention B.V., priority 2015, dated 2022)
Where a SMILES comes first, the peptide text is derived from it. Bridges are numbered along the chain shown (N, C = ends). Where no end group is shown, it is not given here. [ ]: non-standard residue; d: D form. d2Nal = N[C@H](Cc1ccc2ccccc2c1)C(=O)O; dNle = CCCC[C@@H](N)C(=O)O

Columns and labels:
IL17A [1] = target: T1, IL17A (Homo sapiens, UniProt Q16552); assay: ELISA competition assay against Centyrin WPW-His on IL17A; type: binding
T1 sequence (Q16552 24-155): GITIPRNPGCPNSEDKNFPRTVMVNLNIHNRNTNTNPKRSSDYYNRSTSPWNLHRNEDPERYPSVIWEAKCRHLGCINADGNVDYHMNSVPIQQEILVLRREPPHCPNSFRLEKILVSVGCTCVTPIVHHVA
Text: (§1) In order to assess the potential binding of the D-Proteins to IL17A at the binding site of CNT06785, the D-Proteins were screened in an ELISA competition assay against a known competitor of antibody CNT06785, Centyrin WPW-His. To show the specific binding to the epitope, negative control antibody CAT2200 was taken along that binds to a different, non-overlapping epitope on IL17A. […] Upper graphs show competition with centyrin WPW, lower graphs—with antibody CAT2200 binding to a non-overlapping epitope. Response is plotted as a function of logarithm of concentration.

IL17A [2] = target: T1, IL17A; assay: ELISA competition assay against negative control antibody CAT2200 (non-overlapping epitope) on IL17A; details: antibody binding a non-overlapping epitope on IL17A
Text: as §1

Influenza hemagglutinin [3] = assay: ELISA competition with head binding antibody CR11054 (non-overlapping epitope); details: non-overlapping epitope on HA
Influenza hemagglutinin [4] = assay: ELISA assay for competition with designer protein HB80.4 (stem epitope); type: binding; details: for competition with HB80.4 (result in words): stem binding HB80.4, competition ELISA on HA

| Compound | competition with centyrin WPW (result in words) (IL17A [1]) | competition with CAT2200 (result in words) (IL17A [2]) | competition with CR11054 (result in words) (Influenza hemagglutinin [3]) | competition with HB80.4 (result in words) (Influenza hemagglutinin [4]) | pIC50, competition with HB80.4 (Influenza hemagglutinin [4]; competition ELISA on HA) | IC50 (Influenza hemagglutinin [4]; competition ELISA on HA, read-out: IC50 given in brackets after pIC50, competition with HB80.4 (converted)) |
| --- | --- | --- | --- | --- | --- | --- |
| CCCC[C@H]1NC(=O)[C@@H](CCCCN)NC(=O)[C@@H](CCSC)NC(=O)[C@@H](CC(C)C)NC(=O)[C@@H](Cc2c[nH]cn2)NC(=O)[C@@H](CCCCN)NC(=O)[C@H]2CSSC[C@H]3NC(=O)[C@@H]([C@H](C)O)NC(=O)[C@@H](CCCCN)NC(=O)[C@@H](CCCNC(=N)N)NC(=O)[C@@H](CSSC[C@@H](NC(=O)[C@@H](Cc4ccccc4)NC(=O)[C@@H](CC(C)C)NC(=O)[C@@H](CCCCN)NC(=O)[C@H]4CCCN4C(=O)[C@@H](Cc4ccccc4)NC(=O)[C@@H]([C@H](C)O)NC(=O)[C@@H](C)NC(=O)[C@@H](CCC(N)=O)NC(=O)[C@H](NC(=O)[C@@H](CO)NC(=O)[C@H](N)CCCNC(=N)N)CSSC[C@H](C(=O)O)NC(=O)[C@@H]([C@H](C)O)NC(=O)CNC3=O)C(=O)N[C@H]([C@H](C)O)C(=O)N[C@H](C)C(=O)N[C@H](Cc3ccccc3)C(=O)N[C@H](CC(C)C)C(=O)N2)NC(=O)[C@@H](Cc2ccc3ccccc3c2)NC(=O)[C@@H](CO)NC(=O)[C@@H](CC(C)C)NC(=O)[C@@H](CCCNC(=N)N)NC1=O [DP142137, H-rscqatfpklfctaflckhlmkxrls<crktcGtc-OH] (H-[dR][dS][dC][dQ][dA][dT][dF][dP][dK][dL][dF][dC][dT][dA][dF][dL][dC][dK][dH][dL][dM][dK][dNle][dR][dL][dS][d2Nal][dC][dR][dK][dT][dC]G[dT][dC]-OH; disulfide 3-35, 12-28, 17-32) | clear binding curve | lack of activity |  |  |  |  |
| H-rsciatepksfctaflckhlmkarlsycrktcGtc-OH (H-[dR][dS][dC][dI][dA][dT][dE][dP][dK][dS][dF][dC][dT][dA][dF][dL][dC][dK][dH][dL][dM][dK][dA][dR][dL][dS][dY][dC][dR][dK][dT][dC]G[dT][dC]-OH; cysteine pairing not given here) [DP141063] | lack of activity | lack of activity |  |  |  |  |
| H-rscidtipksrctafqckhsmkyrlsfcrktcGtc-OH [DP141050, reference compound] | lack of activity | lack of activity | lack of activity |  |  |  |
| H-rscqatepkyfctaflckhlmkarlsycrktcGtc-OH (H-[dR][dS][dC][dQ][dA][dT][dE][dP][dK][dY][dF][dC][dT][dA][dF][dL][dC][dK][dH][dL][dM][dK][dA][dR][dL][dS][dY][dC][dR][dK][dT][dC]G[dT][dC]-OH; cysteine pairing not given here) [DP141065] | lack of activity | lack of activity |  |  |  |  |
| racprilkkcrrdsdcpGecickGnGycG (RACPRILKKCRRDSDCPGECICKGNGYCG) [DP141753, wild-type scaffold 2LJS as D-protein, negative control, reference compound] |  |  |  | no competition until the highest concentration |  |  |
| rfcpsibkkcrrdsdcpG!cickGnGycG (RFCPSIXKKCRRDSDCPGXCICKGNGYCG; not fully specified (some residues); printed as rfcpsibkkcrrdsdcpG!cickGnGycG; cysteine pairing not given here) [DP142093, optimized HA hit, D-protein on scaffold 2LJS] |  |  | no competition | clear S-curve | 4.1 | 88 µM |
